{
  "source": "patent US20080318938A1",
  "about": "“METHODS FOR TREATING ABERRANT CELL PROLIFERATION DISORDERS” (priority 2007, published 2008)",
  "key": {"Neurokinin NK2 receptor": {"molecular_target": "Neurokinin NK2 receptor (Homo sapiens, UniProt P21452)", "sequence (P21452 whole entry)": "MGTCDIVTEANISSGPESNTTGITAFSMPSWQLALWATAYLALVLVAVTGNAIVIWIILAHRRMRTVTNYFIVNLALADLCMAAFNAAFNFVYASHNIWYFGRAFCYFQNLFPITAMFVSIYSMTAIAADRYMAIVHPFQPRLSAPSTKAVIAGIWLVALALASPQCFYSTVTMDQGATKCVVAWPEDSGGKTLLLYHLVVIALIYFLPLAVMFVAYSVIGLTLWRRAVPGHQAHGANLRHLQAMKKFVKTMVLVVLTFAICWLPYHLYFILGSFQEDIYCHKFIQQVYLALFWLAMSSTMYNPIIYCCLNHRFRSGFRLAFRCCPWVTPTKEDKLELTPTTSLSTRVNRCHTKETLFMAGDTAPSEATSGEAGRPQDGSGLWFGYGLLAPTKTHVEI", "test": "Receptor binding"}, "[1]": {"molecular_target": "CCKB/CCK2 Cholecystokinin receptor (Homo sapiens, UniProt P32239)", "sequence (P32239 whole entry)": "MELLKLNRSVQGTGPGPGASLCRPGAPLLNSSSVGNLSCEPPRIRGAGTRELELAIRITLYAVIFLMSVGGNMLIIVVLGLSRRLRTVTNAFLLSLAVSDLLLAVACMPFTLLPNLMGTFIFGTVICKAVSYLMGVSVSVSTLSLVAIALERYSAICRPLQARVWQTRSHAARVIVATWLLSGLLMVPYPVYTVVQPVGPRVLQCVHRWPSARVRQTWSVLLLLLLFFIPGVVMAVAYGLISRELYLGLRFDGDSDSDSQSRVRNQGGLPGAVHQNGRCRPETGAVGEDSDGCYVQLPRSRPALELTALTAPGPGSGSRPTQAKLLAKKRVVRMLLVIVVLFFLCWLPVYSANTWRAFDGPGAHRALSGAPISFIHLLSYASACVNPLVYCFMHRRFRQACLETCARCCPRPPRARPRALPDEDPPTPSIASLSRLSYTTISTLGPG", "test": "Receptor binding"}, "M2 Muscarinic receptor": {"molecular_target": "M2 Muscarinic receptor (Homo sapiens, UniProt P08172)", "sequence (P08172 whole entry)": "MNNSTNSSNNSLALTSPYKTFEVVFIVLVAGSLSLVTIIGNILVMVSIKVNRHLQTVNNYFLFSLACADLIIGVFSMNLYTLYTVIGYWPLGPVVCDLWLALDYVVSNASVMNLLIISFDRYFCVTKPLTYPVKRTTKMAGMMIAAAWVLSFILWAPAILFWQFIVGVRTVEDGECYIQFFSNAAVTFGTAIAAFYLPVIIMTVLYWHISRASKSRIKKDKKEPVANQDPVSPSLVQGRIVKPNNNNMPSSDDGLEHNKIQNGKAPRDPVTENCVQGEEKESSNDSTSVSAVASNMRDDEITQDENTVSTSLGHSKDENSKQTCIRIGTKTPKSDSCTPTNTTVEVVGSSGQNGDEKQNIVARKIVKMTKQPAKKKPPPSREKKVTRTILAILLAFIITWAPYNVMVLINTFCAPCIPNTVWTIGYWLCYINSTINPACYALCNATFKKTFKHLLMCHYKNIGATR", "test": "Receptor binding"}, "[2]": {"test_system": "σ (non-selective) sigma receptors", "test": "Receptor binding"}, "[3]": {"test_system": "BZD (peripheral) peripheral Benzodiazepine receptor", "test": "Receptor binding"}, "[4]": {"molecular_target": "CCKA/CCK1 Cholecystokinin receptor (Homo sapiens, UniProt P32238)", "sequence (P32238 whole entry)": "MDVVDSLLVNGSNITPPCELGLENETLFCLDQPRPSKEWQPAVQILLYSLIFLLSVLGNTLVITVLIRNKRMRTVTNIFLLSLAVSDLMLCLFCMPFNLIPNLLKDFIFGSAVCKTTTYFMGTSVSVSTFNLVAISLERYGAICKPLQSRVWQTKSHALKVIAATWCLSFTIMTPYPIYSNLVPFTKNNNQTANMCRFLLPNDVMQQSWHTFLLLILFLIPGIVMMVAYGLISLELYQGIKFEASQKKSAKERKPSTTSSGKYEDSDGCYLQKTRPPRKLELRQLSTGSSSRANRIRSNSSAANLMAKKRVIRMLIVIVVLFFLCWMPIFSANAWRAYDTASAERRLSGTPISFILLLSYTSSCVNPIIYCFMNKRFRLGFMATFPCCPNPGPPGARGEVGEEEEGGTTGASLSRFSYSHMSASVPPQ", "test": "Receptor binding", "protocol": "(§1) The binding IC50, functional effect, and functional EC50 of TA1-1B on exemplary receptors was determined."}, "SST1": {"molecular_target": "SST1 (Homo sapiens, UniProt P30872)", "sequence (P30872 whole entry, species assumed)": "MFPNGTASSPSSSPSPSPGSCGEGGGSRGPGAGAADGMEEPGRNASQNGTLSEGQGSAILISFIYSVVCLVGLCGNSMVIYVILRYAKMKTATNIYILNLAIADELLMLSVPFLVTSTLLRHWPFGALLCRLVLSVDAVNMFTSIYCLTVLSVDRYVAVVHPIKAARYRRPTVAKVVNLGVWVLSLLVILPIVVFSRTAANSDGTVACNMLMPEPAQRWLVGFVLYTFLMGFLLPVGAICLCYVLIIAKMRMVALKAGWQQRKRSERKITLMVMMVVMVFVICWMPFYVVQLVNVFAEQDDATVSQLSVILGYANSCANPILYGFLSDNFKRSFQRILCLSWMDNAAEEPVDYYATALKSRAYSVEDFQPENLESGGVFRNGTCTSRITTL", "test": "Receptor binding", "protocol": "as §1"}, "SST4": {"molecular_target": "SST4 (Homo sapiens, UniProt P31391)", "sequence (P31391 whole entry, species assumed)": "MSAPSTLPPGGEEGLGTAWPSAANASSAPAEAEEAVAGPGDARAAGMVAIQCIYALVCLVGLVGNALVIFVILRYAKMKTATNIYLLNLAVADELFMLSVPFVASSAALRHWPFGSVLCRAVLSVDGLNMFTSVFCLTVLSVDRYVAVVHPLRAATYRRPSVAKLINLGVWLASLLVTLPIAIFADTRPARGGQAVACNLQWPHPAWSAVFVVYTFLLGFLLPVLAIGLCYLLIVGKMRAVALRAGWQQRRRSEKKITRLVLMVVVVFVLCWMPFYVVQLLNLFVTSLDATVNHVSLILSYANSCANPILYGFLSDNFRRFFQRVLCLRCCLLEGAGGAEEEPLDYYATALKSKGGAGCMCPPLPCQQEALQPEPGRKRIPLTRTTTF", "test": "Receptor binding", "protocol": "as §1"}, "SST5": {"molecular_target": "SST5 (Homo sapiens, UniProt P35346)", "sequence (P35346 whole entry, species assumed)": "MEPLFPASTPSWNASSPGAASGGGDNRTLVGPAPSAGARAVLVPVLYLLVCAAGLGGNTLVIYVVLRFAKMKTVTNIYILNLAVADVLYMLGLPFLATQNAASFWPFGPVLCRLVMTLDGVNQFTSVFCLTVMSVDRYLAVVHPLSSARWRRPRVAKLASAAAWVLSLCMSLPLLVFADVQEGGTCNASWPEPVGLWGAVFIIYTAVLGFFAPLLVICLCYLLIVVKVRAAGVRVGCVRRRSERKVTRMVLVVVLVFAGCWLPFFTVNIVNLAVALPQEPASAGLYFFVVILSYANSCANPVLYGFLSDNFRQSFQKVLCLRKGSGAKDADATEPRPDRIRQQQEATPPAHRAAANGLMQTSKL", "test": "Receptor binding", "protocol": "as §1"}, "[5]": {"test_system": "sst (non-selective) Somatostatin receptor", "test": "Receptor binding"}, "Adenosine A2A receptors": {"molecular_target": "Adenosine A2A receptors (Homo sapiens, UniProt P29274)", "sequence (P29274 whole entry)": "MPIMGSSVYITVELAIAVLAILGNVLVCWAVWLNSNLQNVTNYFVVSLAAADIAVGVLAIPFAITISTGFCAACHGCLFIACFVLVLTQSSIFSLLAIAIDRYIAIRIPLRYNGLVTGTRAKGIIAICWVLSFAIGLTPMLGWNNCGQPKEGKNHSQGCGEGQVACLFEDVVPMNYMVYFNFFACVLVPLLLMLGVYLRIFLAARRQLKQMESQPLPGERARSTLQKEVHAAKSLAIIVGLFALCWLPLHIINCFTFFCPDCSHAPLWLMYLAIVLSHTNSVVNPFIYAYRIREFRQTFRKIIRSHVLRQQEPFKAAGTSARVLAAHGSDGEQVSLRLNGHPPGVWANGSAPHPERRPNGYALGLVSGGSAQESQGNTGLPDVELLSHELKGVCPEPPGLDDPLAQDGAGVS", "test": "Receptor binding"}, "[6]": {"test_system": "κ-opioid (KOP) opioid receptor", "test": "Receptor binding"}, "H2-receptor": {"molecular_target": "H2-receptor (Homo sapiens, UniProt P25021)", "sequence (P25021 whole entry)": "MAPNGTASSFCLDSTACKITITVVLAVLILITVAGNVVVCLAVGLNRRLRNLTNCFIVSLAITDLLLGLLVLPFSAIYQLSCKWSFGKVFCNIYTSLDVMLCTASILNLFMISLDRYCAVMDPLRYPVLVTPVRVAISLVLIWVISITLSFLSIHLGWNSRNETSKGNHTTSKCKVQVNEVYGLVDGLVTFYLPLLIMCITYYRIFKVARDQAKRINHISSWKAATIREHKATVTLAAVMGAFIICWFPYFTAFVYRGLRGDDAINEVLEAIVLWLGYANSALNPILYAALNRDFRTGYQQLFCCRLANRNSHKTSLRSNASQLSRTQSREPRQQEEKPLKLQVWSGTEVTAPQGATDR", "test": "Receptor binding"}, "[7]": {"test": "TA1-1B in plasma, brain and tumor of HCT116 tumor-bearing mice", "format": "in vivo", "conditions": "25.0 mg/kg single IV dose; for concentration at 15 min / concentration at 2 h: female, NCr nu/nu, mouse; for concentration at 15 min: 15 min post-dose; for concentration at 2 h: two hour post-dose", "source_text": "In vivo experiment protocols were approved by the Animal Use and Care Committee. Female NCr nu/nu mice were purchased from Taconic Farms and group housed in a ventilated rack system on a 12/12 light cycle. All housing materials and water were autoclaved prior to use. The mice were fed ad libitum with gamma-irradiated laboratory chow and acidified water. Animals were handled under laminar-flow hoods. Animals were inoculated subcutaneously in the right flank with 5×10̂6 HCT116 cells. Tumors were monitored twice weekly and then daily as they approached the appropriate size for study. On Day 1 of the study, the animals were randomized into n=3 treatment groups with group average tumor sizes of 109 mm^3.\nwhere w=width and 1=length in mm of the tumor. Tumor weight was estimated with the assumption that 1 mg is equivalent to 1 mm^3 of tumor volume. Mice were dosed with compound TA1-1B at 25.0 mg/kg (single IV dose). At fifteen min and two hour time points, plasma, brain and tumor samples were collected from terminal mice and frozen. It was determined that the tumor contained 0.86 μM, plasma contained 0.74 μM and brain contained 1.47 μM of the therapeutic agent after 15 min post-dose, and the tumor contained 1.6 μM, plasma contained 0.41 μM and brain contained 0.8 μM of the therapeutic agent after the two hour post-dose."}, "[8]": {"test": "Distribution in human whole blood fractions (LC-MS/MS)", "format": "in vitro ADME", "protocol": "Twenty five mL healthy donor whole blood was collected in the presence of heparin. Human whole blood was added with Compound TA1-1B to reach final concentration of 3 uM. Whole blood was gently mized and incubated at 37° C. for 4 hrs. At the end of the incubation 0.5 mL blood was collected and centrifuge at 500×g to separate the platelet-rich plasma for further analysis.\nIn order to isolate white blood cells, 5 ml of treated blood was subjected to Ficoll density gradient centrifugation. At the end of the centrifugation formed buffy coat containing most of the white blood cells and Ficolle fractions containing red blood cells and granulocites were collected separately. Obtained white cell fraction was washed with 5 ml of isotonic phosphate buffer and saved for further analysis. Obtained fractions were subjected to Compound TA1-1B quantitative analysis using LC-MS/MS. Fractions obtained from untreated whole blood were used as corresponding biological matrices in LC-MS/MS based bioanalysis.\nThe most part of added compound (93.7%) was found in blood formed elements than in plasma indicating to a potentially high volume of distribution and good tissue penetration of compound TA1-1B."}, "[9]": {"test": "Tissue distribution in rats (in vivo pharmacokinetic study)", "parameters": "species or system Sprague Dawley rats", "protocol": "Five groups (three animals per group) of male Sprague Dawley rats were assigned for in vivo pharmacokinetic study. • Group-1 animals were dosed intravenously with compound TA1-1B at 7.5 mg/kg and after 2 hr post-dose animals were terminated and whole blood, plasma, brain, bone marrow and adrenal gland collected. • Group-2 animals were dosed intravenously with compound TA1-1B at 7.5 mg/kg for five consecutive days. After 2 hr of the last dose (98 hr) animals were terminated and whole blood, plasma, brain, bone marrow and adrenal gland collected. • Group-3 animals were dosed intravenously with compound TA1-1B at 7.5 mg/kg for five consecutive days. After 26 hr of the last dose (122 hr) animals were terminated and whole blood, plasma, brain, bone marrow and adrenal gland collected. • Group-4 animals were dosed intravenously with compound TA1-1B at 7.5 mg/kg for five consecutive days. After 50 hr of the last dose (146 hr) animals were terminated and whole blood, plasma, brain, bone marrow and adrenal gland collected. • Group-5 animals were dosed intravenously with vehicle, terminated and whole blood, plasma, brain, bone marrow and adrenal gland collected. Tissues obtained from this group of animals were used for corresponding matrix preparation in subsequent bioanalysis.\nAfter administration the compound TA1-1B quickly reaches those tissues (after 2 hr) and subsequently gets cleared."}, "[10]": {"conditions": "brain, read-out: Concentration in brain"}, "[11]": {"conditions": "plasma, read-out: Concentration in plasma"}, "[12]": {"conditions": "tumor, read-out: Concentration in tumor"}, "[13]": {"conditions": "3 uM, 37° C., 4 hrs, White cells"}, "[14]": {"conditions": "7.5 mg/kg intravenously (FIG. 3)"}, "[15]": {"conditions": "7.5 mg/kg intravenously, time point not stated, unit from FIG. 2 legend"}},
  "note": "Where two headings read alike, the source gives them in different places.",
  "data": [
    {"compound": "CN1CCC[C@H]1CCNC(=O)c1cn2c3c(c(N4CCC(c5cnccn5)C4)c(F)cc3c1=O)Oc1cc3ccccc3cc1-2", "note": "(stereo partly shown) [TA1-1B]", "values": [
      {"measurement": "inhibition at 1 µM", "setting": "Neurokinin NK2 receptor", "result": 107, "unit": "%"},
      {"measurement": "inhibition at 1 µM", "setting": "[1]", "result": 93, "unit": "%"},
      {"measurement": "inhibition at 1 µM", "setting": "M2 Muscarinic receptor", "result": 92, "unit": "%"},
      {"measurement": "% inhibition @ 1 uM", "setting": "[2]", "result": 67, "unit": "%"},
      {"measurement": "% inhibition @ 1 uM", "setting": "[3]", "result": 65, "unit": "%"},
      {"measurement": "IC50", "setting": "[4]; CCK1/CCKA", "result": 640, "unit": "nM"},
      {"measurement": "inhibition at 1 µM", "setting": "[4]; CCKA/CCK1, 1 uM", "result": 64, "unit": "%"},
      {"measurement": "IC50", "setting": "SST1", "result": 2800, "unit": "nM"},
      {"measurement": "IC50", "setting": "SST4", "result": "> 10000", "unit": "nM"},
      {"measurement": "IC50", "setting": "SST5", "result": "> 10000", "unit": "nM"},
      {"measurement": "% inhibition @ 1 uM", "setting": "[5]", "result": 62, "unit": "%"},
      {"measurement": "inhibition at 1 µM", "setting": "Adenosine A2A receptors", "result": 60, "unit": "%"},
      {"measurement": "% inhibition @ 1 uM", "setting": "[6]", "result": 52, "unit": "%"},
      {"measurement": "inhibition at 1 µM", "setting": "H2-receptor", "result": 48, "unit": "%"},
      {"measurement": "Blood-brain barrier permeation", "setting": "[7]; heading of Example 3", "result": "Permeates the Blood-Brain Barrier"},
      {"measurement": "concentration at 15 min", "setting": "[7]; [10]", "result": 1470, "unit": "nM"},
      {"measurement": "concentration at 2 h", "setting": "[7]; [10]", "result": 800, "unit": "nM"},
      {"measurement": "concentration at 15 min", "setting": "[7]; [11]", "result": 740, "unit": "nM"},
      {"measurement": "concentration at 2 h", "setting": "[7]; [11]", "result": 410, "unit": "nM"},
      {"measurement": "concentration at 15 min", "setting": "[7]; [12]", "result": 860, "unit": "nM"},
      {"measurement": "concentration at 2 h", "setting": "[7]; [12]", "result": 1600, "unit": "nM"},
      {"measurement": "Mass balance Amount", "setting": "[8]; 3 uM added, 5 mL", "result": 14.7, "unit": "nmol"},
      {"measurement": "Mass balance Conc.", "setting": "[8]; 3 uM added, 5 mL", "result": 2.95, "unit": "µM"},
      {"measurement": "% of compound in plasma fraction", "setting": "[8]; 3 uM, 37° C., 4 hrs, Plasma", "result": 6.2, "unit": "%"},
      {"measurement": "Amount in plasma fraction", "setting": "[8]; 3 uM, 37° C., 4 hrs, Plasma", "result": 0.92, "unit": "nmol"},
      {"measurement": "Conc. in plasma fraction", "setting": "[8]; 3 uM, 37° C., 4 hrs, Plasma", "result": 370, "unit": "nM"},
      {"measurement": "% of compound in red cells fraction", "setting": "[8]; 3 uM, 37° C., 4 hrs, Red cells", "result": 81.5, "unit": "%"},
      {"measurement": "Amount in red cells fraction", "setting": "[8]; 3 uM, 37° C., 4 hrs, Red cells", "result": 12.0, "unit": "nmol"},
      {"measurement": "Conc. in red cells fraction", "setting": "[8]; 3 uM, 37° C., 4 hrs, Red cells", "result": 4850, "unit": "nM"},
      {"measurement": "Total amount in all fractions", "setting": "[8]; 3 uM, 37° C., 4 hrs, Total", "result": 14.7, "unit": "nmol"},
      {"measurement": "% of compound in white cells fraction", "setting": "[8]; [13]", "result": 12.2, "unit": "%"},
      {"measurement": "Amount in white cells fraction", "setting": "[8]; [13]", "result": 1.8, "unit": "nmol"},
      {"measurement": "Conc. in white cells fraction", "setting": "[8]; [13]", "result": 81790, "unit": "nM"},
      {"measurement": "Part of added compound found in blood formed elements", "setting": "[8]; 3 uM, 37° C., 4 hrs, red and white cells versus plasma", "result": 93.7, "unit": "%"},
      {"measurement": "Exposure in adrenal glands and bone marrow relative to other tissues", "setting": "[9]; [14]", "result": "highest exposures"},
      {"measurement": "Retention in adrenal glands and bone marrow versus brain", "setting": "[9]; [14]", "result": "retains longer"},
      {"measurement": "Elimination from rat brain tissue", "setting": "[9]; 7.5 mg/kg intravenously QDx5, over 48 hr post-dose (FIG. 2)", "result": "almost completely eliminates"},
      {"measurement": "Concentration in brain tissue", "setting": "[9]; [15]", "result": 1600, "unit": "nM"},
      {"measurement": "Concentration in plasma", "setting": "[9]; [15]", "result": 200, "unit": "nM"},
      {"measurement": "Concentration in whole blood", "setting": "[9]; [15]", "result": 500, "unit": "nM"}
    ]}
  ]
}
